Data on three molecules can be found in patent publication US9499821B2, “Preventing or treating viral infection using an inhibitor of the LSD1 protein, a MAO inhibitor or an inhibitor of LSD1 and a MAO inhibitor” (The United States of America, as represented by the …, priority 2008, dated 2016).

The subject of one series is HSV-1 (strain 17). In words: HSV reactivation: viral yield from explanted trigeminal ganglia of latently infected mice. In kind it is cell-based, Balb/c mice. As to the method:
(§1) Latently infected mice and trigeminal ganglia: Balb/c mice were infected with 5×10^5 PFU HSV-1 (strain 17) per eye after corneal scarification. Latently infected mice were sacrificed 30 days post clearance of the primary infection and trigeminal ganglia were rapidly explanted into culture in the presence or absence of TCP or control (DMSO or acyclovir). Post explant incubation as indicated, the ganglia were homogenized and briefly sonicated. The reactivated viral yield of each ganglia was determined by titering the clarified supernatant on Vero cells.
Statistical analyses: Statistical comparisons were made using Wilcoxon signed rank test (paired ganglia) with a statistical significance of <0.05; Kruskal-Wallis test with post hoc Dunn's multiple comparison test (drug titration and reversal) with a statistical significance of <0.025; Mann-Whitney U test with Dunn's post hoc adjustment (non-paired ganglia time course) with a statistical significance of <0.025; or Fischer's Exact Test with a statistical significance of <0.05. Analyses were made using Prism (V5.0a) and are expressed as the mean+/−s.e.m.
Non-paired ganglia time course statistic analysis: Comparisons were made between control (DMSO) and TCP treated ganglia on day 2 and day 4 post explant. Each comparison utilized a one-sided Mann-Whitney U test followed by application of the Dunn's post hoc adjustment to the p-values. Significant differences were found between DMSO and TCP on day 2 (p=0.0043) and on day 4 (p=0.0011). Both of these differences are still significant after applying the Dunn's adjustment as both are less than the alpha level (α=0.025). The Mann-Whitney tests used an exact p-value for small sample sizes. n=6 for each sample set.
Paired ganglia statistical analysis: Each data point was the result of a single ganglia divided and treated in the presence and absence of TCP. Therefore, a Wilcoxon signed rank test was used to assess differences between each treated and untreated sample. The significant difference was p=0.0002. This test used an exact p-value for small sample sizes with an α level of 0.05. n=16 for each sample set.
TCP titration statistical analysis: To determine at what concentration TCP that would produce a significant reduction in viral load, a Kruskal-Wallis (K-W) test with Dunn's post hoc comparison was used. The K-W test was appropriate due to the comparison of five samples of data that are not normally distributed. Significant differences were found between the five groups (p=0.0007, K-W=19.39). […] No significant difference was found between 1.0 and 1.5 or 1.5 and 2.0 mM data sets. n=5 for control, 0.5, 1.0, and 2.0 mM; n=6 for […].
TCP reversal statistical analysis: Viral yields from ganglia treated without TCP for 2 days, treated with TCP for 2 days, or treated with TCP for 2 days followed by incubation in the absence of drug for 3 days were compared using the K-W test followed by Dunn's post hoc comparisons. The K-W test was appropriate due to the comparison of three samples of data that are not nominally distributed. Significant differences were found between the groups ([…], K-W=10.3).

Series [1] deals with viral IE promoters (histone H3, H3K9 and H3K4 methylation). In words: Chromatin immunoprecipitation of viral IE promoters in MAOI-treated infected cells. In kind it is cell-based. As to conditions: for nucleosomes bearing repressive marks on the viral IE promoters (histone H3 and H3K9 methylation): in the presence of drug. As for the experimental part: Chromatin immunoprecipitations (ChIP) from extracts of control, HCF-1 depleted, and LSD1 depleted cells were done essentially as described (Narayanan et al., Proc. Natl. Acad. Sci. USA, 2007, 104, 10835-40). Recovered DNA was subjected to semi-quantitative PCR with dilutions of input DNA to insure linearity using PCR Supermix (Invitrogen, Carlsbad, Calif.) with the following conditions: 95° C. for 2 min followed by 20 cycles of 95° C. for 30 sec; 59° C. for 30 sec; 72° C. for 30 sec. The signal intensities of individual bands, resolved in ethidium bromide agarose gels, were calculated as a percentage of the intensity of the input extract after subtraction of the appropriate background antibody controls. Signal intensities of resolved bands were quantitated using a Kodak 4000MM Image Station.
Samples also were analyzed, in triplicate, by qPCR using ABI Sybr Green PCR Master Mix. For qPCR, samples were run on a ABI PRISM 7900HT with the following conditions: 95° C. for 10 min followed by 40 cycles of 95° C. for 15 sec; 57° C. for 15 sec; 72° C. for 30 sec. Results were analyzed using ABI SDS 2.3 software.
(§2) For treatment with MAOIs, cells were pretreated with the indicated concentration of drug for 4-5 hrs prior to infection and maintained throughout infection. Pargyline (p-8013) and Tranylcypromine (p-8511) were obtained from Sigma (St. Louis, Mo.).

In another series the test system is Adenovirus Type 5. As to conditions: HeLa cells, 2 mM, 5 hours prior to infection, 2 or 4 hours infection. As to the method: Viral infection and treatment with TCP: HeLa cells (2×10^6) were treated with control DMSO (D) or 2 mM Tranylcypromine (T) for 5 hours prior to infection with various amounts of Adenovirus Type 5 (1.2×10^8, 2.3×10^8, and 4.5×10^8 NAS IU) for 2 or 4 hours. Equal amounts of infected cell lysates were resolved by SDS-PAGE and Western blotted with anti-E1A, anti-LSD1, and anti-β tubulin antibodies. HEK293 and uninfected HeLa cell lysates represented E1A positive and negative controls.
HeLa cells (2×10^6) were treated with control DMSO (D) or various concentrations of Tranylcypromine (TCP) for 5 hours prior to infection with 2.3×10^9 NAS IU of adenovirus Type 5 for 2 hours. Equal amounts of infected cell lysates were resolved by SDS-PAGE and Western blotted with anti-E1A, anti-β Tubulin, and anti-TBP antibodies.

Series [2] relates to varicella zoster virus (VZV). In words: VZV infection of cells treated with MAOIs; qRT-PCR of IE62 mRNA and IE proteins. In kind it is cell-based. The note with it: VZV-infected cells, 4 hrs, increasing amounts of drug; relative to DMSO treated cells. As for the experimental part:
The methods of Example 1 were followed.
(§3) Cell infections: For HSV, cells were infected with 0.1 plaque forming units (PFU) of HSV per cell for 24 hrs in the presence of 2 mM Tranylcypromine (TCP) or control DMSO. The resulting viral yields were determined by titer of infected cell lysates on Vero cell monolayers. VZV infections were performed as in Example 3.

Series [3] can be described thus: Cellular protein controls and cellular toxicity in MAOI-treated infected cells. It is filed as cell-based.
Excerpt: as §2

The next series concerns HSV ICP8. Briefly: ICP8 immunofluorescence of explanted latently infected trigeminal ganglia. It is filed as cell-based, Balb/c mice. As to conditions: for ganglia with ICP8 (+) neurons: explant 48 hrs in the presence of drug. As for the experimental part:
as §1
Immunofluorescence statistical analysis: Trigeminal ganglia (16 DMSO/Control, 15 acyclovir, and 15 TCP) were fixed at 48 hours post explants. Serial sections representing the entire ganglia were stained and scored by confocal microscopy.
Therefore, latently infected ganglia were explanted in the presence of DMSO (control vector), acyclovir (to prevent viral DNA replication and spread), or TCP for 48 hrs. Ganglia were fixed and sections were probed with antibodies to HSV ICP8, the viral-encoded single stranded binding protein.

The subject of another series is HSV. As to conditions: 0.1 PFU HSV per cell, 24 hrs, 2 mM TCP vs DMSO. As to the method:
as §3

For series [4], the system named is herpes simplex virus (HSV). In words: HSV infection of cells treated with MAOIs; qRT-PCR of HSV IE genes and IE proteins. As to conditions: HSV-infected cells, selected concentrations of drug; relative to DMSO treated cells. It is filed as cell-based, HSV-1 strain 17. For orientation: Quantitative PCR measures a nucleic acid by following its amplification.
Series [5] has as its system HSV IE mRNA (ICP27, ICP4). In words: Nested RT-PCR of viral IE mRNAs in explanted latently infected ganglia. It is filed as cell-based, Balb/c mice. The note with it: paired ganglia explanted 12 hrs; 100 μM acyclovir or 2 mM TCP. As to the method:
For the detection of viral IE and cellular mRNAs post explant, 8 ganglia from HSV latently infected or mock infected Balb/c mice were explanted in the presence of DMSO, 100 μM acyclovir, or 2 mM TCP for the indicated times. cDNAs were prepared from total RNA and amplified by qPCR (cellular Sp1 and TBP controls) or nested PCR (viral IE). Primer sets for the nested RT-PCR were as follows:
cDNA samples were normalized to one another according to the level of cellular control Sp1 mRNA. To insure linearity and sensitivity of nested PCR reactions, samples were amplified in parallel with dilutions of cDNA prepared from 3T3 cells infected with HSV at 6.4×10^−5 pfu/cell for 4 hrs. PCR products were resolved in agarose gels and quantitated using Kodak Image Station 4000MM Digital Imaging System.

Entries after “also recorded” stand apart in the source; their conditions may differ. Where two headings read alike, the source gives them in different places.

Regarding `N[C@@H]1C[C@H]1c1ccccc1` (racemic) [TCP, Tranylcypromine], the “reduction in viral load vs control (DMSO)” value with HSV-1 (strain 17) (0.5 mM TCP, 2 days explant, Dunn's post hoc) was “did not”; in the series on HSV-1 (strain 17) (1.0 mM TCP, 2 days explant, Dunn's post hoc p<0.05) it was “showed significant differences”; in the series with HSV-1 (strain 17) (1.5 mM TCP, 2 days explant, Dunn's post hoc p<0.05) it was “showed significant differences”; in the series on HSV-1 (strain 17) (2.0 mM TCP, 2 days explant, Dunn's post hoc p<0.05), “showed significant differences”. In the series on HSV-1 (strain 17) (2 mM TCP 2 days, then 3 days in the absence of drug), the “viral reactivation following drug removal (TCP-R)” value was “high level of viral reactivation; also recorded: HSV reactivation”. In addition, the “viral reactivation (viral yield), paired ganglia” value in the series with HSV-1 (strain 17) (each half of a ganglia explanted with or without 2 mM TCP, 2 days, p=0.0002, n=16) is listed as “inhibition of viral reactivation; also recorded: decrease in viral yield”. Also, the “reactivation of HSV-1 (viral yield), non-paired ganglia time course” value in the series with HSV-1 (strain 17) (explant 2 or 4 days, 2 mM TCP vs DMSO, p=0.0043 (day 2), 0.0011 (day 4), n=6) was “significantly reduced; also recorded: decrease in viral yield”. Moreover, the “HSV reactivation at various (lower) levels of TCP” value with HSV-1 (strain 17) (titration of TCP, 2 days explant) is recorded as “lower levels also were effective; also recorded: inhibition of HSV reactivation”. In addition, the “histone H3 and H3K9 trimethylation on viral IE promoters” value in series [1] (in the presence of TCP) is “substantial increase”. In addition, the “level of H3K4 trimethylation on viral IE promoters” value in series [1] (in the presence of TCP) is “did not significantly change”. For the same molecule, in [1], the “nucleosomes bearing repressive marks on the viral IE promoters (histone H3 and H3K9 methylation)” value was “accumulated”. In the series with Adenovirus Type 5, the “expression of the adenovirus IE protein E1A” value is given as “inhibits the expression”. In series [2], the “viral mRNA (IE62) and IE proteins” value is listed as “dose dependent decrease”. Besides, the cellular toxicity result in series [3] (VZV and HSV infected cells treated with inhibitor) is on record as “no significant cellular toxicity”. For the same molecule, the “odds of viral reactivation, DMSO treated vs TCP treated samples (Odds Ratio)” value in the series with HSV ICP8 (48 hours post explant) worked out at 60.6667 times higher. In the series on HSV ICP8 (48 hours post explant), the “odds of viral reactivation, acyclovir treated vs TCP treated samples (Odds Ratio)” value is recorded as 42.0000 times higher. In addition, the “ganglia with ICP8 (+) neurons” value in the series with HSV ICP8 was 1 of 15. In addition, the “reduction of viral yields” value with HSV was approximately 1000 fold. Also, in series [4], the “viral mRNA (HSV IE genes) and IE proteins” value is “dose dependent decrease”. In addition, the “ICP27 mRNA level” value in [5] is “not significantly above that of background controls”.

Take `C#CCN(C)Cc1ccccc1` [Pargyline]: the “nucleosomes bearing repressive marks on the viral IE promoters (histone H3 and H3K9 methylation)” value in [1] is listed as “accumulated”. In series [2], the “viral mRNA (IE62) and IE proteins” value was “dose dependent decrease”. Moreover, the cellular toxicity result in [3] is “no significant cellular toxicity”. The “viral mRNA (HSV IE genes) and IE proteins” value in [4] is “dose dependent decrease”.

For `Nc1nc2c(ncn2COCCO)c(=O)[nH]1` [acyclovir], in the series with HSV ICP8 (48 hours post explant), the “odds of viral reactivation, DMSO treated vs acyclovir treated samples (Odds Ratio)” value is recorded as 1.4444 times higher. Also, the “ganglia with ICP8 (+) neurons” value in the series with HSV ICP8 is recorded as 9 of 12. The “ICP27 mRNA level” value in [5] is reported as “readily detected”.
